Data as given in patent US4677113A, “Di-t-butylphenols substituted by a thenoyl group” (Riker Laboratories, Inc., priority 1986, dated 1987).
Read-outs that look alike come from different tables or passages of the source.

How the values were obtained:
[1] = test system: bronchoconstriction in sensitized guinea pigs; test: antigen-induced bronchoconstriction in sensitized guinea pigs (frequency of notching); assay type: in vivo, guinea pig; conditions: Cavia porcellus, male Hartley guinea pigs pretreated with antihistamine, read-out: ED40, inhibition of bronchoconstriction
Procedure: Preferably, bronchoconstriction in sensitized guinea pigs is measured upon antigen challenge. This test is described in broad terms by Piechuta, et al., Immunology, 38, 385 (1979) and more specifically by Hammerbeck and Swingle, Int. Archs. Allergy Appl. Immun. 74, 84-90 (1984), both references being incorporated herein by reference. It was used in a modified form as follows: Male Hartley guinea pigs (250-600 g) which were pretreated with an antihistamine, e.g., chlorpheniramine and then dosed intraperitoneally with a compound of the invention at a level of about 1 to 40 mg/kg 15 minutes prior to challenge or orally at the same dose 30 minutes prior to challenge were aerosol challenged with either water or ovalbumim at a concentration of 10 mg per ml. The animals were placed under an inverted dessicator jar (18×14 cm) with a constant flow of air coming into the chamber from a compressed-air source to prevent hypoxia. Air flow leaving the chamber and fluctuations due to respiration were monitored through a separate outlet with a Fleisch No. 0000 pneumotachograph (available from Beckman Instruments, Inc., Schiller Park, Ill.) coupled to a Beckman Type R dynograph (available from Beckman Instruments, Inc.). Aerosolization through a third outlet was made via a No. 4 DeVilbiss nebulizer (available from the DeVilbiss Company, Somerset, PA) for 90 seconds at 150 mm Hg. […]

[2] = test system: leukotriene synthesis in homogenized rat basophil leukemia cells; test: cell free leukotriene biosynthesis system (homogenized rat basophil leukemia cells, radioimmunoassay); assay type: biochemical; conditions: synthesis initiated by arachidonate; drug preincubated five minutes; read-out: IC50, leukotriene synthesis inhibition
Procedure: This test utilizes the cell free leukotriene biosynthesis system of M. Steinhoff et al. Biochim. Acta. 68, 28 (1980), incorporated herein by reference, which consists of homogenized rat basophil leukemia cells. Leukotriene synthesis is initiated by the addition of arachidonate. Solutions are centrifuged and supernatants assayed using a radioimmunoassay developed as described by Aeringhaus et al. FEBS Letter 146, 111-114. Drugs are dissolved in ethanol or dimethyl sulfoxide and then preincubated for five minutes. Phenidone is used as a positive control.

- IC50 [2]: 15 µM
Compound: CC(C)(C)c1cc(C(=O)c2ccc(C(=O)O)s2)cc(C(C)(C)C)c1O [5-(3',5'-di-t-butyl-4'-hydroxybenzoyl)thiophene-2-carboxylic acid]
- ED40 ([1]; ip, 0.25 h, administered intraperitoneally 15 minutes prior to ovalbumin aerosol challenge): < 10 mg/kg
- ED40 ([1]; po, 0.5 h, administered orally 30 minutes prior to ovalbumin aerosol challenge): < 25 mg/kg
